The source of these data is paper PMC5329011 (Frontiers in Neuroscience, 2017).

Read-outs that look alike come from different tables or passages of the source. Ends that are not written are not given here.

In data set [1] the target is T1, apelin receptor (Homo sapiens, UniProt P35414).
T1 sequence (P35414 1-380): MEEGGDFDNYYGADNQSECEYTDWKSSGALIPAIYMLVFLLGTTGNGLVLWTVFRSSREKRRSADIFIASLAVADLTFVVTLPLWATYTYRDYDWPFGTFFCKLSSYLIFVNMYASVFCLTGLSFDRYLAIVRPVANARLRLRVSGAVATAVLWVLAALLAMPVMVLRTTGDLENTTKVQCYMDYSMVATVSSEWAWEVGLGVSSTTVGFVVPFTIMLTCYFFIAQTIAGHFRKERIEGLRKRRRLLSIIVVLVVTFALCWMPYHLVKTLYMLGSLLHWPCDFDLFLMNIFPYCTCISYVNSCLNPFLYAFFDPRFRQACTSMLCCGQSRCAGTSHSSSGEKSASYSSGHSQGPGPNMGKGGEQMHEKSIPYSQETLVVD
Put plainly: Inhibition of forskolin-stimulated cAMP accumulation (DiscoverX). It is filed as cell-based. Conditions: 15 μmol/L forskolin, cells expressing human apelin receptor, mean ± SEM, n = replicates/experiments, read-out: pD2, inhibition of forskolin-stimulated cAMP (converted). On the procedure:
(§1) Inhibition of cAMP accumulation, β-arrestin recruitment and receptor internalization by apelin isoforms, modified and truncated apelin peptides were studied using cells expressing the human apelin receptor (DiscoverX, CA, USA) as per the manufacturer's instructions. In all assays the resulting chemiluminescent signal was measured as relative light units (RLU) using a LumiLITE™ Microplate Reader (DiscoveRx, Fremont, CA). […] Agonist responses were expressed as a % of the forskolin response. […] Data were analyzed using a 4-parameter logistic equation using GraphPad Prism 6 to determine values of potency, pD2 (−log10 EC50, where EC50 is the concentration producing half maximal response) and maximum response (EMAX). n-Values are given as number of replicates/number of experiments.

In data set [2] the target is T1, apelin receptor. Put plainly: β-arrestin recruitment assay (DiscoverX). It is filed as cell-based. Conditions: cells expressing human apelin receptor, mean ± SEM, n = replicates/experiments, read-out: pD2, β-arrestin recruitment (converted). The protocol: as §1
Data set [3] has as its target T1, apelin receptor. Put plainly: Receptor internalization assay (DiscoverX). It is filed as cell-based. On the procedure:
as §1

Data set [4] addresses T1, apelin receptor. Put plainly: β-arrestin assay without and with pre-incubation with rhACE2. It is filed as cell-based. On the procedure:
as §1

Data set [5] addresses T2, vascular smooth muscle apelin receptor (Homo sapiens, UniProt P35414).
T2 construct: from tissue; host or cells: endothelium-denuded human saphenous vein
T2 sequence (P35414 1-380): T1 sequence (P35414 1-380)
Put plainly: Contraction of endothelium-denuded human saphenous vein. Conditions: n = 9; for Emax: % of terminal response to KCl (100 mmol/L). On the procedure: (§2) Vascular smooth muscle apelin receptor-mediated contraction was exploited in a bioassay to compare the in vitro potency of apelin peptides. […] Agonist responses were expressed as a % of a terminal response to KCl (100 mmol/L). […] Data were expressed as % of the terminal response to CaCl2. Data from vascular and cardiac experiments were analyzed using a 4-prameter logistic curve (GraphPad Prism 6) to determine values of pD2 and EMAX.

For data set [6] the following is noted: human, in vivo. The protocol: Studies were performed in healthy volunteers (n = 12) in the University of Cambridge Vascular Research Unit, Addenbrooke's Hospital, Cambridge, UK. This study was carried out in accordance with the recommendations of the National Research Ethics Service Committee East of England-Cambridge Central with written informed consent from all subjects. All subjects gave written informed consent in accordance with the Declaration of Helsinki. The protocol was approved by the National Research Ethics Service Committee East of England-Cambridge Central (REC 11/EE/0305).
Exclusion criteria were ischemic heart disease, respiratory, renal or neurological disease, diabetes mellitus, hypertension, BMI > 30, BMI <18; smoker; pregnant; use of vasoactive medication or NSAIDS/aspirin within 48 h of study; current involvement in other research studies. An Omron HEM705CP oscillimetric sphygmomanometer was used to measure blood pressure and heart rate at baseline and then every 6 min in the contralateral arm. Periodically, a cuff around the upper arm was inflated for ~8 s to 40 mmHg then deflated for 4 s to interrupt venous return and during a 3 min measurement hand circulation was excluded by inflation of wrist cuffs to 200 mmHg. Changes in forearm volume were measured by mercury-in-silastic strain gauge with FBF subsequently expressed as ml/100 ml forearm volume per min. […]

Data set [7] addresses T1, apelin receptor. The experiment in a line: Competition binding with [Glp65,Nle75,Tyr77][125I]apelin-13 in human left ventricle homogenate. Details: from tissue; host or cells: human left ventricle homogenate. The protocol: Assays were performed in human heart as previously described (Brame et al., [2015]). […] Equilibrium was broken by centrifugation (20,000 g for 10 min, 4°C) and pellets washed with Tris-HCl buffer (50 mmol/L, pH 7.4, 4°C), re-centrifuged and pellets counted for detection of bound radioactivity. Competition binding data were analyzed using GraphPad Prism 6 (GraphPad Software, Inc. La Jolla, CA, USA) to obtain values of pKi (the negative log10 of the dissociation constant derived from the IC50 for the competing ligands, the radioligand concentration and radioligand affinity by the Cheng and Prusoff equation). Experiments were performed in triplicate.
Measurements are mean ± standard error of the mean (SEM). […] Cell assay pD2 values were compared by one-way ANOVA followed by Tukey's multiple comparison test.

In a further data set the target is T3, recombinant human ACE2 (Homo sapiens, UniProt Q9BYF1).
T3 construct: purchased GSK, Ware, UK
Put plainly: Incubation with rhACE2, Maldi-TOF mass spectrometry. It is filed as in vitro ADME. Conditions: 5 nmol peptide, 5 pmol rhACE2, MES buffer pH 6.5, 2 h, 37°C, Maldi-TOF read-out. The protocol:
The reaction mixture was analyzed by Maldi-TOF mass spectrometry after samples were desalted using Millipore μC18ZipTip (MA, USA), washed with 5% acetic acid and eluted with CHCA matrix (in 50% aqueous acetonitrile containing 0.1% trifluoroacetic acid) to a stainless steel sample slide. Samples were air dried and analyzed using a Waters Maldi MicroMX time-of-flight mass spectrometer (MA, USA). Calibration was external using polyethylene glycol. The 10 Hz-laser power was just above threshold. The spectra were the sum of 1,000 shots collected from a spiral track of the sample area. Data were processed using Waters MassLynx software (MA, USA).

For data set [8] the following is noted: cited from earlier work. The source says: Apelins are modulators of vascular tone and cardiac contractility in vitro and in vivo (Japp et al., [2008], [2010]; Maguire et al., [2009]; Barnes et al., [2013]; Brame et al., [2015]).
Data set [9] relates to mouse paced right ventricle. The experiment in a line: Inotropic action in mouse paced right ventricle. Conditions: mouse paced RV, n = 6 (isoprenaline n = 4). On the procedure: as §2
A further data set relates to rhACE2. Put plainly: rhACE2 enzyme (5 pmol, GSK) in buffer (pH 6.5) containing MES (500 mmol/L), NaCl (300 mmol/L) and ZnCl2 (10 μmol/L). Conditions: human, 37°C, up to 2 h.
A short description of another data set: rat in vivo. Conditions: cited from earlier work.

T3 sequence (Q9BYF1 18-740 limits assumed): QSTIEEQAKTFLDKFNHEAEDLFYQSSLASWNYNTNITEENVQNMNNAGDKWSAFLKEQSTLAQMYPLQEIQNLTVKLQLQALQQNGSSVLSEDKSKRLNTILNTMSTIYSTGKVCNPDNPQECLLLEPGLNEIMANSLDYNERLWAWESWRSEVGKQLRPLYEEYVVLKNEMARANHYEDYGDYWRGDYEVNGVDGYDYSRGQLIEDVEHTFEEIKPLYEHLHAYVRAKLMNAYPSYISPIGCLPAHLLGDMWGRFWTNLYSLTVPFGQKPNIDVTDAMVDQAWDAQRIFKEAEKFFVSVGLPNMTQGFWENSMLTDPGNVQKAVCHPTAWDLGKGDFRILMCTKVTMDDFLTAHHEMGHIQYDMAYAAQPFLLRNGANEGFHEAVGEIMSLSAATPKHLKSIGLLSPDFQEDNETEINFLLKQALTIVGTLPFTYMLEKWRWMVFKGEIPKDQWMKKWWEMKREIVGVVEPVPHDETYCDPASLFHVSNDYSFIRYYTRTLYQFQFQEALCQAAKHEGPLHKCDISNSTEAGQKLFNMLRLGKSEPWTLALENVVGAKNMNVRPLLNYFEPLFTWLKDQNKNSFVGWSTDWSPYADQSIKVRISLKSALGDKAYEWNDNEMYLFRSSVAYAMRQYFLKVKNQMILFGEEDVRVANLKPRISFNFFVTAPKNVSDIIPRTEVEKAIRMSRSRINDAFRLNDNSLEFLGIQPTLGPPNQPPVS

Consider `CSCC[C@H](NC(=O)[C@@H]1CCCN1C(=O)CNC(=O)[C@H](CCCCN)NC(=O)[C@H](Cc1c[nH]cn1)NC(=O)[C@H](CO)NC(=O)[C@H](CC(C)C)NC(=O)[C@H](CCCNC(=N)N)NC(=O)[C@@H]1CCCN1C(=O)[C@H](CCCNC(=N)N)NC(=O)[C@@H]1CCC(=O)N1)C(=O)N1CCC[C@H]1C(=O)O` [[Pyr^1]apelin-13(1–12)], for which the EC50 at apelin receptor [1] was 0.501 nM; at apelin receptor [2], 14.5 nM; on apelin receptor [3] (mean ± SEM, SEM, read-out: pD2, receptor internalization (converted)), 6.46 nM; at apelin receptor [4] (without or with pre-incubation with rhACE2 (2 h, 37°C), mean ± SEM, SEM, read-out: Potency (pD2) (converted)), 53.7 nM; in [5] (endothelium-denuded human saphenous vein, mean ± SEM, SEM, read-out: pD2, contraction of saphenous vein (converted)), 0.234 nM. Also, the Emax on apelin receptor [3] came to 97 ± 2%; in data set [5], 24 ± 6%. For the same molecule, the “EMAX (% [Pyr^1]apelin-13)” value at apelin receptor [4] (without or with pre-incubation with rhACE2) is 98 ± 5 % [Pyr^1]apelin-13. In data set [6], the “effect on heart rate or blood pressure” value is listed as “No significant effects”. The same molecule had a Ki on apelin receptor [7] (0.1 nmol/L radioligand, 90 min, 22°C, pH 7.4, Cheng-Prusoff, mean ± SEM, n = 3, SEM) of 9.12 nM.

As to `CSCC[C@H](NC(=O)[C@@H]1CCCN1C(=O)CNC(=O)[C@H](CCCCN)NC(=O)[C@H](Cc1cnc[nH]1)NC(=O)[C@H](CO)NC(=O)[C@H](CC(C)C)NC(=O)[C@H](CCCNC(=N)N)NC(=O)[C@@H]1CCCN1C(=O)[C@H](CCCNC(=N)N)NC(=O)[C@@H]1CCC(=O)N1)C(=O)N1CCC[C@H]1C(=O)N[C@@H](Cc1ccccc1)C(=O)O` [[Pyr^1]apelin-13], the “result of incubation with rhACE2” value at recombinant human ACE2 is “de novo generation of [Pyr^1]apelin-13(1–12), with a weak signal representing the remaining parent peptide”. Moreover, the half-life entry in [8] (humans, ref Japp et al., 2008) was “less than 8 min”; in [8] (rat, ref Brame et al., 2015) it was “less than 3 min”.

Turning to `CSCC[C@H](NC(=O)[C@@H]1CCCN1C(=O)CNC(=O)[C@H](CCCCN)NC(=O)[C@H](Cc1c[nH]cn1)NC(=O)[C@H](CO)NC(=O)[C@H](CC(C)C)NC(=O)[C@H](CCCNC(=N)N)NC(=O)[C@@H]1CCCN1C(=O)[C@H](CCCNC(=N)N)NC(=O)[C@@H](N)CCC(N)=O)C(=O)N1CCC[C@H]1C(=O)N[C@@H](C)C(=O)O` [apelin-13(F13A), reference compound], in data set [5], the maximal response (Emax) stood at 23 ± 4%.

As to `CC(C)NCC(O)c1ccc(O)c(O)c1` (stereo not shown) [isoprenaline], in data set [9] (mean ± SEM, SEM, read-out: pD2, increase in force of contraction (converted)), the EC50 was 13.2 nM. For the same molecule, in data set [9], the “EMAX, increase in force of contraction” value worked out at 78 ± 17 % CaCl2.

As to RPRLSHKGPM [apelin-13(R10M)], the EC50 is 2 nM at apelin receptor [1] and 5.5 nM at apelin receptor [2]. Besides, the “% of specific binding competed for” value on apelin receptor [7] (single concentration 1 μM peptide) is 100%.

On to “pGlu-Arg-Pro-Arg-Leu-Ser-His-Lys-Gly-Pro-Met-Pro”, for which, in the data set on rhACE2, the not cleaved result is recorded as “did not produce shorter apelin fragments (2 h)”.

Regarding “pGlu-Arg-Pro-Arg-Leu-Ser-His-Lys-Gly-Pro-Met-Pro-Phe”, the cleaved bond entry in “rat in vivo” is “Pro12-Phe13, minor”; in the data set on rhACE2, “Pro12-Phe13, 2 h”.
